SMILES strings stand for the structures. Counter-ions that a name gives are not always drawn.

The experiment has as its system ICR CD strain male mice. The experiment is described as follows: Gastric emptying enhancing activity (phenol red meal). It counts as in vivo. As to conditions: Mus musculus, ip, 0.25 h, 3.0 mg/kg i.p., gastric emptying at 15 min after test meal, increase vs vehicle. As for the experimental part:
ICR CD strain male mice (body weight, 25˜30 g; 8 mice per one group) were fasted for 24 h but allowed free access to water until 3 hours before the test.
Compounds to be tested for promoting GI motility were injected intraperitoneally or given orally at 30 min or 60 min prior to phenol red meal administration. Fifteen (15) min after administration of a test meal (0.5% Phenol red in 1.5% methylcellulose solution), mice were sacrificed and the stomach (pylorus˜cardia) was removed and collected to vial. The stomach was homogenized with its contents in 0.1N NaOH and the mixture was centrifuged (700*g) for 20 min. 2.5 mL of the supernatant was added to 0.25 mL of trichloroacetic acid solution (20% w/v) to precipitate proteins. After centrifuging (2600*g) for 20 min, 0.5 mL of the supernatant was added to 0.25 mL of 1N NaOH. The mixture was homogenized and its absorbance (Abs) was read at 560 nm.
In each experiment, one group was sacrificed just after the administration of the test meal and was considered as a standard (0% emptying). The gastric emptying (GE) at the 15 min period was calculated according to the following formula. GE (%)=(1−Abstest/Absstandard)×100 Increase (%)=(GE %test−GE %vehicle)/GE %vehicle*100

Consider `COc1cc(N)c(Cl)cc1C(=O)NCC1CCN(CCC(NC(=O)O)c2ccccc2)CC1` (stereo not drawn) [Example 53, [3-[4-[[(4-amino-5-chloro-2-methoxybenzoyl)amino]methyl]piperidin-1-yl]-1-phenylpropyl]carbamate; hydrochloride], for which the change in vivo at 3 mg/kg amounted to 28.4%.
On to `COc1cc(N)c(Cl)cc1C(=O)NCC1CCN(CCC(NC(=O)O)c2ccc(F)cc2)CC1` (stereo not drawn) [Example 54, [3-[4-[[(4-amino-5-chloro-2-methoxybenzoyl)amino]methyl]piperidin-1-yl]-1-(4-fluorophenyl)propyl]carbamate; hydrochloride], for which the change in vivo at 3 mg/kg was 89.2%.
Take `COc1cc(N)c(Cl)cc1C(=O)NCC1CCN(CCC(NC(=O)O)c2ccccc2Cl)CC1` (stereo not drawn) [Example 56, [3-[4-[[(4-amino-5-chloro-2-methoxybenzoyl)amino]methyl]piperidin-1-yl]-1-(2-chlorophenyl)propyl]carbamate; hydrochloride]: the change in vivo at 3 mg/kg worked out at 135%.
Regarding `COc1cc(N)c(Cl)cc1C(=O)NCC1CCN(CCC(NC(=O)O)c2cccc(Cl)c2Cl)CC1` (stereo not drawn) [Example 59, [3-[4-[[(4-amino-5-chloro-2-methoxybenzoyl)amino]methyl]piperidin-1-yl]-1-(2,3-dichlorophenyl)propyl]carbamate; hydrochloride], the change in vivo at 3 mg/kg worked out at 48%.
Consider `COc1cc(N)c(Cl)cc1C(=O)NCC1CCN(CCC(NC(=O)O)c2ccc(Cl)cc2Cl)CC1` (stereo not drawn) [Example 60, [3-[4-[[(4-amino-5-chloro-2-methoxybenzoyl)amino]methyl]piperidin-1-yl]-1-(2,4-dichlorophenyl)propyl]carbamate; hydrochloride], for which the change in vivo at 3 mg/kg stood at 14.2%.
Take `COc1cc(N)c(Cl)cc1C(=O)NCC1CCN(CCC(NC(=O)O)c2ccc(Cl)c(Cl)c2)CC1` (stereo not drawn) [Example 61, [3-[4-[[(4-amino-5-chloro-2-methoxybenzoyl)amino]methyl]piperidin-1-yl]-1-(3,4-dichlorophenyl)propyl]carbamate; hydrochloride]: the change in vivo at 3 mg/kg is 44.3%.
As for `COc1cc(N)c(Cl)cc1C(=O)NCC1CCN(CCC(NC(=O)O)c2ccc(C(C)C)cc2)CC1` (stereo not drawn) [Example 62, [3-[4-[[(4-amino-5-chloro-2-methoxybenzoyl)amino]methyl]piperidin-1-yl]-1-(4-isopropylphenyl)propyl]carbamate; hydrochloride], the change in vivo at 3 mg/kg is 17.9%.
In the case of `COc1cccc(C(CCN2CCC(CNC(=O)c3cc(Cl)c(N)cc3OC)CC2)NC(=O)O)c1` (stereo not drawn) [Example 63, [3-[4-[[(4-amino-5-chloro-2-methoxybenzoyl)amino]methyl]piperidin-1-yl]-1-(3-methoxyphenyl)propyl]carbamate; hydrochloride], the change in vivo at 3 mg/kg was determined as 24.4%.
Consider `COc1cc(N)c(Cl)cc1C(=O)NCC1CCN(CCC(Cc2ccc(F)cc2)NC(=O)O)CC1` (stereo not drawn) [Example 65, [4-[4-[[(4-amino-5-chloro-2-methoxybenzoyl)amino]methyl]piperidin-1-yl]-1-(4-fluorophenyl)butan-2-yl]carbamate; hydrochloride], for which the change in vivo at 3 mg/kg stood at 93.1%.
In the case of `COc1cc(N)c(Cl)cc1C(=O)NCC1CCN(CC(O)COc2ccccc2)CC1` (stereo not drawn) [Example 71, 4-amino-5-chloro-N-[[1-(2-hydroxy-3-phenoxypropyl)piperidin-4-yl]methyl]-2-methoxybenzamide; hydrochloride], the change in vivo at 3 mg/kg came out at 63.7%.
As to `COc1cc(N)c(Cl)cc1C(=O)NCC1CCN(CC(O)COc2ccc(F)cc2)CC1` (stereo not drawn) [Example 72, 4-amino-5-chloro-N-[[1-[3-(4-fluorophenoxy)-2-hydroxypropyl]piperidin-4-yl]methyl]-2-methoxybenzamide; hydrochloride], the change in vivo at 3 mg/kg is 48.1%.
`COc1ccc(OCC(O)CN2CCC(CNC(=O)c3cc(Cl)c(N)cc3OC)CC2)cc1` (stereo not drawn) [Example 74, 4-amino-5-chloro-N-[[1-[2-hydroxy-3-(4-methoxyphenoxy)propyl]piperidin-4-yl]methyl]-2-methoxybenzamide; hydrochloride]: the change in vivo at 3 mg/kg was determined as 46.7%.
For the compound `COc1cc(N)c(Cl)cc1C(=O)NCC1CCN(CC(O)COc2ccc(C(F)(F)F)cc2)CC1` (stereo not drawn) [Example 83, 4-amino-5-chloro-N-[[1-[2-hydroxy-3-[4-(trifluoromethyl)phenoxy]propyl]piperidin-4-yl]methyl]-2-methoxybenzamide; hydrochloride], the change in vivo at 3 mg/kg was found to be 42.5%.
The result for `COc1cc(N)c(Cl)cc1C(=O)NCC1CCN(CC(COc2ccccc2)OC(=O)N2CCCCC2)CC1` (stereo not drawn) [Example 88, [1-[4-[[(4-amino-5-chloro-2-methoxybenzoyl)amino]methyl]piperidin-1-yl]-3-phenoxypropan-2-yl]piperidine-1-carboxylate; hydrochloride] reads 44.1%.
Take `COc1cc(N)c(Cl)cc1C(=O)NCC1CCN(CC(COc2ccc(F)cc2)OC(=O)N2CC(C)CC(C)C2)CC1` (stereo not drawn) [Example 89, [1-[4-[[(4-amino-5-chloro-2-methoxybenzoyl)amino]methyl]piperidin-1-yl]-3-(4-fluorophenoxy)propan-2-yl]3,5-dimethylpiperidine-1-carboxylate; hydrochloride]: the change in vivo at 3 mg/kg was found to be 45.3%.
As to `COc1cc(N)c(Cl)cc1C(=O)NCC1CCN(CC(COc2ccc(Cl)cc2Cl)NC(=O)O)CC1` (stereo not drawn) [Example 96, [1-[4-[[(4-amino-5-chloro-2-methoxybenzoyl)amino]methyl]piperidin-1-yl]-3-(2,4-dichlorophenoxy)propan-2-yl]carbamate; hydrochloride], the change in vivo at 3 mg/kg is 105%.
As for `COc1cc(N)c(Cl)cc1C(=O)NCC1CCN(CC(COc2c(Cl)cccc2Cl)NC(=O)O)CC1` (stereo not drawn) [Example 98, [1-[4-[[(4-amino-5-chloro-2-methoxybenzoyl)amino]methyl]piperidin-1-yl]-3-(2,6-dichlorophenoxy)propan-2-yl]carbamate; hydrochloride], the change in vivo at 3 mg/kg was 63.6%.
The result for `COc1cc(N)c(Cl)cc1C(=O)NCC1CCN(CC(COc2ccc(Cl)c(Cl)c2)NC(=O)O)CC1` (stereo not drawn) [Example 99, [1-[4-[[(4-amino-5-chloro-2-methoxybenzoyl)amino]methyl]piperidin-1-yl]-3-(3,4-dichlorophenoxy)propan-2-yl]carbamate; hydrochloride] reads 47.5%; that for `COc1cc(N)c(Cl)cc1C(=O)NCC1CCN(CC(COc2ccc(C(F)(F)F)cc2)NC(=O)O)CC1` (stereo not drawn) [Example 100, [1-[4-[[(4-amino-5-chloro-2-methoxybenzoyl)amino]methyl]piperidin-1-yl]-3-[4-(trifluoromethyl)phenoxy]propan-2-yl]carbamate; hydrochloride], 46.1%; that for `COc1cc(N)c(Cl)cc1C(=O)NCC1CCN(CC(Cc2ccccc2)NC(=O)O)CC1` (stereo not drawn) [Example 103, [1-[4-[[(4-amino-5-chloro-2-methoxybenzoyl)amino]methyl]piperidin-1-yl]-3-phenylpropan-2-yl]carbamate; hydrochloride], 88.8%.
The result for `CC(C)n1c(=O)n(C(=O)NCC2CCN(CC(O)COc3ccccc3)CC2)c2ccccc21` (stereo not drawn) [Example 104, N-[[1-(2-hydroxy-3-phenoxypropyl)piperidin-4-yl]methyl]-2-oxo-3-propan-2-ylbenzimidazole-1-carboxamide; hydrochloride] reads 81%; that for `Cn1c(=O)n(C(=O)NCC2CCN(CC(O)COc3ccccc3)CC2)c2ccccc21` (stereo not drawn) [Example 111, N-[[1-(2-hydroxy-3-phenoxypropyl)piperidin-4-yl]methyl]-3-methyl-2-oxobenzimidazole-1-carboxamide; hydrochloride], 37.2%.
In the case of `COc1ccc(OCC(CN2CCC(CNC(=O)n3c(=O)n(C(C)C)c4ccccc43)CC2)NC(=O)O)cc1` (stereo not drawn) [Example 121, [1-(4-methoxyphenoxy)-3-[4-[[(2-oxo-3-propan-2-ylbenzimidazole-1-carbonyl)amino]methyl]piperidin-1-yl]propan-2-yl]carbamate; hydrochloride], the change in vivo at 3 mg/kg was found to be 46.8%.
Consider `CC(C)n1c(=O)n(C(=O)NCC2CCN(CC(COc3ccc(F)cc3)NC(=O)O)CC2)c2ccccc21` (stereo not drawn) [Example 122, [1-(4-fluorophenoxy)-3-[4-[[(2-oxo-3-propan-2-ylbenzimidazole-1-carbonyl)amino]methyl]piperidin-1-yl]propan-2-yl]carbamate; hydrochloride], for which the change in vivo at 3 mg/kg amounted to 6.8%.
On to `Cc1ccccc1OCC(CN1CCC(CNC(=O)n2c(=O)n(C(C)C)c3ccccc32)CC1)NC(=O)O` (stereo not drawn) [Example 123, [1-(2-methylphenoxy)-3-[4-[[(2-oxo-3-propan-2-ylbenzimidazole-1-carbonyl)amino]methyl]piperidin-1-yl]propan-2-yl]carbamate; hydrochloride], for which the change in vivo at 3 mg/kg was 56.8%.
The result for `Cn1c(=O)n(C(=O)NCC2CCN(CC(COc3ccccc3)NC(=O)O)CC2)c2ccccc21` (stereo not drawn) [Example 126, [1-[4-[[(3-methyl-2-oxobenzimidazole-1-carbonyl)amino]methyl]piperidin-1-yl]-3-phenoxypropan-2-yl]carbamate; hydrochloride] reads 93.3%; that for `O=C(NCC1CCN(CCC(O)c2ccccc2)CC1)n1c(=O)n(C2CC2)c2ccccc21` (stereo not drawn) [Example 135, 3-cyclopropyl-N-[[1-(3-hydroxy-3-phenylpropyl)piperidin-4-yl]methyl]-2-oxobenzimidazole-1-carboxamide; hydrochloride], 90.3%.
